Measurements published in patent US20260125400A1, “TYK2 DEGRADERS AND USES THEREOF” (Kymera Therapeutics, Inc., priority 2023, published 2026).

Target: T1, TYK2 (Homo sapiens, UniProt P29597)
T1 construct: Degradation of TYK2 in cells was quantitatively measured using Meso Scale Discovery (MSD) technology; endogenous in cells; host or cells: OCI-LY10
Experiment: TYK2 MSD degradation in OCI-LY10 cells
Type: cell-based
Settings: OCI-LY10 cells, 4 to 24 hours incubation
Procedure, shortened: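 OCI-LY10 cells were treated with 9-dose 1:3 series (top 1 to 10 μM final) for 4 to 24 hours at 37° C. Lysate TYK2 quantified by MSD sandwich immunoassay; DC50 and Dmax from four-parameter inhibitor vs. response fit.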

T1 sequence (P29597 whole entry): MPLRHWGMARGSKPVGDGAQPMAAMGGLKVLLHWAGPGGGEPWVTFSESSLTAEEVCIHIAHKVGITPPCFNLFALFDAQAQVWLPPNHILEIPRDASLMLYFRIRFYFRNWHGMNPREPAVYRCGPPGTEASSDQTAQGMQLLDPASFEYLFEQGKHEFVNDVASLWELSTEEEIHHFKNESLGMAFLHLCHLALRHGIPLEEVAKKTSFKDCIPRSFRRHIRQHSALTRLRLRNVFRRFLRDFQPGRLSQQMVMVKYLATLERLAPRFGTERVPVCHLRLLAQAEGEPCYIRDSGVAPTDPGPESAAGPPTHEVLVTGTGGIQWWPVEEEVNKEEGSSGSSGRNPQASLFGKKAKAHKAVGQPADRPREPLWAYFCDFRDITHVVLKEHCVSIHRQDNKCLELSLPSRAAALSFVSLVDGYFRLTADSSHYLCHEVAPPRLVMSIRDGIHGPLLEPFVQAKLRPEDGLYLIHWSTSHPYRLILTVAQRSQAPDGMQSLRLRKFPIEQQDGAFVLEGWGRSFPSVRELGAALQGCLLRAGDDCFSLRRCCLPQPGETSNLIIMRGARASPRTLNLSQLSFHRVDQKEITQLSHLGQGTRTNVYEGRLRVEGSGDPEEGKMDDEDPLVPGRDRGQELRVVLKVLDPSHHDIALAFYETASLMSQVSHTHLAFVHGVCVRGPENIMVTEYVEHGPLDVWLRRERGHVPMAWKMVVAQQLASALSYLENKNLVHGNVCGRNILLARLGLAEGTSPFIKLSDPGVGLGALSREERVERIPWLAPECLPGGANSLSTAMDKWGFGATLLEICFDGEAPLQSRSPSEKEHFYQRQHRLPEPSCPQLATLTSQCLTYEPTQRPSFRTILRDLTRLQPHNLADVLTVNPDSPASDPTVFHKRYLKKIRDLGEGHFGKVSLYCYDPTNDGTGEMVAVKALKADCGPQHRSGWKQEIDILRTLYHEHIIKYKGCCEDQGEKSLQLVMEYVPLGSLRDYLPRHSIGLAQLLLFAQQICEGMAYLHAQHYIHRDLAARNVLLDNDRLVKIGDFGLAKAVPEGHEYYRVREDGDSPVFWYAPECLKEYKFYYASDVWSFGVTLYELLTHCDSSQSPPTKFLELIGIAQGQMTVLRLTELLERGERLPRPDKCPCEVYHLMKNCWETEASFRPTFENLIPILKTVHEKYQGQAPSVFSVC

| Compound | TYK2 MSD OCI-LY10 Dmax % |
| --- | --- |
| CNc1cc(N2CCc3c(-c4cnc(CC5CC6(CCN(C(=O)c7cc(C)c(Cl)c(N8CCC(=O)NC8=O)c7)CC6)C5)cn4)cccc32)nn2c(C(=O)N[C@@H]3C[C@@H]3F)cnc12 [I-760] | B (B (90 to >75%)) |
| CNc1cc(N2CCc3c(CN4CCC(N5CCC6(CCN(C(=O)c7cc(C)c(Cl)c(N8CCC(=O)NC8=O)c7)CC6)CC5)C(F)(F)C4)cccc32)nc2c(C(=O)N[C@@H]3C[C@@H]3F)cnn12 (stereo partly drawn) [I-775] | A (A (>90%)) |
| CNc1cc(-c2cn(C3CN(C4CCN(C(=O)c5ccc(Cl)c(N6CCC(=O)NC6=O)c5)CC4)C3)c3ccccc23)nn2c(C(=O)N[C@@H]3C[C@@H]3F)cnc12 [I-745] | D (D (<50%)) |
| CNc1cc(N2CCc3c(-c4ccc(CN5CC6(CCN(C(=O)c7ccc(Cl)c(N8CCC(=O)NC8=O)c7)CC6(F)F)C5)cn4)cccc32)nn2c(C(=O)NC3CC(F)(F)C3)cnc12 [I-653] | B (B (90 to >75%)) |
| CNc1cc(N2CCc3c(CCN4CCC(N5CCN(C(=O)c6ccc(Cl)c(N7CCC(=O)NC7=O)c6)CC5)C(F)(F)C4)cccc32)nn2c(C(=O)N[C@@H]3C[C@@H]3F)cnc12 (stereo partly drawn) [I-743] | B (B (90 to >75%)) |
| CNc1cc(-c2cn(C3CCN(CC4CCN(C(=O)c5ccc(Cl)c(N6CCC(=O)NC6=O)c5)CC4)CC3)c3ccccc23)nn2c(C(=O)N[C@@H]3C[C@@H]3F)cnc12 [I-789] | D (D (<50%)) |
| CNc1cc(N2CCc3c(-c4ncc(CN5CC6(CCN(C(=O)c7cc(C)c(Cl)c(N8CCC(=O)NC8=O)c7)CC6(F)F)C5)cc4C)cccc32)nn2c(C(=O)N[C@@H]3C[C@@H]3F)cnc12 [I-756] | B (B (90 to >75%)) |
| CNc1cc(N2CCc3c(CC4CCN(C5CCC6(CCN(C(=O)c7ccc(Cl)c(N8CCC(=O)NC8=O)c7)CC6)OC5)CC4)cccc32)nn2c(C(=O)N[C@@H]3C[C@@H]3F)cnc12 (stereo partly drawn) [I-685] | C (C (75 to 50%)) |
| CNc1cc(N2CCc3c(-c4ccc(CN5CCC6(CCN(C(=O)c7cc(F)c(Cl)c(N8CCC(=O)NC8=O)c7)CC6)C(F)(F)C5)cn4)cccc32)nn2c(C(=O)N[C@@H]3C[C@@H]3F)cnc12 [I-656] | B (B (90 to >75%)) |
| CNc1cc(N2CCc3c(CN4CCC(N5CCC(CC#Cc6cccc7c6n(C)c(=O)n7C6CCC(=O)NC6=O)CC5)C(F)(F)C4)cccc32)nn2c(C(=O)NC3CC3F)cnc12 (stereo not drawn) [I-488] | D (D (<50%)) |

Same assay, conditions: OCI-LY10 cells, 4 to 24 hours incubation, read-out: TYK2 MSD OCI-LY10 Rel-DC50

| Compound | DC50 [µM] |
| --- | --- |
| CNc1cc(N2CCc3c(-c4cnc(CC5CC6(CCN(C(=O)c7cc(C)c(Cl)c(N8CCC(=O)NC8=O)c7)CC6)C5)cn4)cccc32)nn2c(C(=O)N[C@@H]3C[C@@H]3F)cnc12 [I-760] | < 0.01 |
| CNc1cc(N2CCc3c(CN4CCC(N5CCC6(CCN(C(=O)c7cc(C)c(Cl)c(N8CCC(=O)NC8=O)c7)CC6)CC5)C(F)(F)C4)cccc32)nc2c(C(=O)N[C@@H]3C[C@@H]3F)cnn12 (stereo partly drawn) [I-775] | < 0.001 |
| CNc1cc(-c2cn(C3CN(C4CCN(C(=O)c5ccc(Cl)c(N6CCC(=O)NC6=O)c5)CC4)C3)c3ccccc23)nn2c(C(=O)N[C@@H]3C[C@@H]3F)cnc12 [I-745] | > 0.1 |
| CNc1cc(N2CCc3c(-c4ccc(CN5CC6(CCN(C(=O)c7ccc(Cl)c(N8CCC(=O)NC8=O)c7)CC6(F)F)C5)cn4)cccc32)nn2c(C(=O)NC3CC(F)(F)C3)cnc12 [I-653] | < 0.01 |
| CNc1cc(N2CCc3c(CCN4CCC(N5CCN(C(=O)c6ccc(Cl)c(N7CCC(=O)NC7=O)c6)CC5)C(F)(F)C4)cccc32)nn2c(C(=O)N[C@@H]3C[C@@H]3F)cnc12 (stereo partly drawn) [I-743] | < 0.01 |
| CNc1cc(-c2cn(C3CCN(CC4CCN(C(=O)c5ccc(Cl)c(N6CCC(=O)NC6=O)c5)CC4)CC3)c3ccccc23)nn2c(C(=O)N[C@@H]3C[C@@H]3F)cnc12 [I-789] | > 0.1 |
| CNc1cc(N2CCc3c(-c4ncc(CN5CC6(CCN(C(=O)c7cc(C)c(Cl)c(N8CCC(=O)NC8=O)c7)CC6(F)F)C5)cc4C)cccc32)nn2c(C(=O)N[C@@H]3C[C@@H]3F)cnc12 [I-756] | < 0.01 |
| CNc1cc(N2CCc3c(CC4CCN(C5CCC6(CCN(C(=O)c7ccc(Cl)c(N8CCC(=O)NC8=O)c7)CC6)OC5)CC4)cccc32)nn2c(C(=O)N[C@@H]3C[C@@H]3F)cnc12 (stereo partly drawn) [I-685] | < 0.01 |
| CNc1cc(N2CCc3c(-c4ccc(CN5CCC6(CCN(C(=O)c7cc(F)c(Cl)c(N8CCC(=O)NC8=O)c7)CC6)C(F)(F)C5)cn4)cccc32)nn2c(C(=O)N[C@@H]3C[C@@H]3F)cnc12 [I-656] | < 0.001 |
| CNc1cc(N2CCc3c(CN4CCC(N5CCC(CC#Cc6cccc7c6n(C)c(=O)n7C6CCC(=O)NC6=O)CC5)C(F)(F)C4)cccc32)nn2c(C(=O)NC3CC3F)cnc12 (stereo not drawn) [I-488] | 0.01 to 0.1 |

Same assay, conditions: TYK2 degradation in OCI-LY10 cells, 4 to 24 hours incubation

| Compound | TYK2 MSD OCI-LY10 Dmax % |
| --- | --- |
| CNc1cc(N2CCc3c(-c4ccc(CN5CC6(CCN(C(=O)c7ccc(C(F)F)c(N8CCC(=O)NC8=O)c7)CC6(F)F)C5)cn4)cccc32)nn2c(C(=O)N[C@@H]3C[C@@H]3F)cnc12 [I-977] | C (C (75 to 50%)) |
| CNc1cc(N2CCc3c(-c4ccc(CN5CCC6(C5)CN(C(=O)c5ccc(Cl)c(N7CCC(=O)NC7=O)c5)C6)cn4)cccc32)nn2c(C(=O)NC3CC3F)cnc12 (stereo not drawn) [I-297] | C (C (75 to 50%)) |
| CNc1cc(N2CCc3c(C4CCCN(CC5CC6(C5)CN(c5ccc7c(c5)n(C)c(=O)n7C5CCC(=O)NC5=O)C6)C4)cccc32)nn2c(C(=O)NC3CC3)cnc12 (stereo not drawn) [I-59] | D (D (<50%)) |
| CNc1cc(N2CCc3c(-c4ccc(CN5CC6(CCN(C(=O)c7cc(C)c(C)c(N8CCC(=O)NC8=O)c7)CC6(F)F)C5)cn4)cccc32)nn2c(C(=O)N[C@@H]3C[C@@H]3F)cnc12 [I-796] | A (A (>90%)) |
| CNc1cc(N2CCc3c(CN4CCC(N5CCC6(CCN(c7ccc8c(c7)n(C)c(=O)n8C7CCC(=O)NC7=O)CC6)CC5)C(F)(F)C4)cccc32)nn2c(C(=O)N[C@@H]3C[C@@H]3F)cnc12 (stereo partly drawn) [I-237] | B (B (90 to >75%)) |
| CNc1cc(N2CCc3c(-c4ccc(N5CCC6(CCN(C(=O)c7ccc(N8CCC(=O)NC8=O)c(Cl)c7)CC6)CC5)cn4)cccc32)nn2c(C(=O)N[C@@H]3C[C@@H]3F)cnc12 [I-885] | C (C (75 to 50%)) |
| CNc1cc(N2CCc3c(CN4CC[C@H](N5CCC6(CCN(C(=O)c7cc(N8CCC(=O)NC8=O)c(Cl)cn7)CC6)CC5)C(F)(F)C4)cc(F)cc32)nn2c(C(=O)N[C@@H]3CC[C@H]3OC)cnc12 [I-1148] | B (B (90 to >75%)) |
| CNc1cc(N2CCc3c(CN4CCC(CN5CCC6(CCN(C(=O)c7ccc(Cl)c(N8CCC(=O)NC8=O)c7)CC6)C(F)(F)C5)C(F)(F)C4)cccc32)nn2c(C(=O)N[C@@H]3CC[C@H]3OC)cnc12 (stereo partly drawn) [I-1124] | A (A (>90%)) |

Same assay, conditions: TYK2 degradation in OCI-LY10 cells, 4 to 24 hours incubation, read-out: TYK2 MSD OCI-LY10 Rel-DC50

| Compound | DC50 [µM] |
| --- | --- |
| CNc1cc(N2CCc3c(-c4ccc(CN5CC6(CCN(C(=O)c7ccc(C(F)F)c(N8CCC(=O)NC8=O)c7)CC6(F)F)C5)cn4)cccc32)nn2c(C(=O)N[C@@H]3C[C@@H]3F)cnc12 [I-977] | < 0.01 |
| CNc1cc(N2CCc3c(-c4ccc(CN5CCC6(C5)CN(C(=O)c5ccc(Cl)c(N7CCC(=O)NC7=O)c5)C6)cn4)cccc32)nn2c(C(=O)NC3CC3F)cnc12 (stereo not drawn) [I-297] | < 0.01 |
| CNc1cc(N2CCc3c(C4CCCN(CC5CC6(C5)CN(c5ccc7c(c5)n(C)c(=O)n7C5CCC(=O)NC5=O)C6)C4)cccc32)nn2c(C(=O)NC3CC3)cnc12 (stereo not drawn) [I-59] | < 0.001 |
| CNc1cc(N2CCc3c(-c4ccc(CN5CC6(CCN(C(=O)c7cc(C)c(C)c(N8CCC(=O)NC8=O)c7)CC6(F)F)C5)cn4)cccc32)nn2c(C(=O)N[C@@H]3C[C@@H]3F)cnc12 [I-796] | < 0.001 |
| CNc1cc(N2CCc3c(CN4CCC(N5CCC6(CCN(c7ccc8c(c7)n(C)c(=O)n8C7CCC(=O)NC7=O)CC6)CC5)C(F)(F)C4)cccc32)nn2c(C(=O)N[C@@H]3C[C@@H]3F)cnc12 (stereo partly drawn) [I-237] | < 0.001 |
| CNc1cc(N2CCc3c(-c4ccc(N5CCC6(CCN(C(=O)c7ccc(N8CCC(=O)NC8=O)c(Cl)c7)CC6)CC5)cn4)cccc32)nn2c(C(=O)N[C@@H]3C[C@@H]3F)cnc12 [I-885] | 0.01 to 0.1 |
| CNc1cc(N2CCc3c(CN4CC[C@H](N5CCC6(CCN(C(=O)c7cc(N8CCC(=O)NC8=O)c(Cl)cn7)CC6)CC5)C(F)(F)C4)cc(F)cc32)nn2c(C(=O)N[C@@H]3CC[C@H]3OC)cnc12 [I-1148] | < 0.001 |
| CNc1cc(N2CCc3c(CN4CCC(CN5CCC6(CCN(C(=O)c7ccc(Cl)c(N8CCC(=O)NC8=O)c7)CC6)C(F)(F)C5)C(F)(F)C4)cccc32)nn2c(C(=O)N[C@@H]3CC[C@H]3OC)cnc12 (stereo partly drawn) [I-1124] | < 0.001 |
